From ChEMBL document CHEMBL5055668 (J Med Chem, 2021)
Activity calls are given as the source filed them. No cut-off for these calls is given here.

Assays:
[1] = biological target: T1, Macrophage colony-stimulating factor 1 receptor (Mus musculus) (UniProt P09581); experiment: Inhibition of CSF-1R signaling pathway in C57BL/6 mouse BMDM cells assessed as reduction in M-CSF induced CSF-1R phosphorylation at 100 nM preincubated for 12 hrs followed by M-CSF stimulation for 30 mins by Western blot analysis; format: cell-based
T1 sequence (whole entry): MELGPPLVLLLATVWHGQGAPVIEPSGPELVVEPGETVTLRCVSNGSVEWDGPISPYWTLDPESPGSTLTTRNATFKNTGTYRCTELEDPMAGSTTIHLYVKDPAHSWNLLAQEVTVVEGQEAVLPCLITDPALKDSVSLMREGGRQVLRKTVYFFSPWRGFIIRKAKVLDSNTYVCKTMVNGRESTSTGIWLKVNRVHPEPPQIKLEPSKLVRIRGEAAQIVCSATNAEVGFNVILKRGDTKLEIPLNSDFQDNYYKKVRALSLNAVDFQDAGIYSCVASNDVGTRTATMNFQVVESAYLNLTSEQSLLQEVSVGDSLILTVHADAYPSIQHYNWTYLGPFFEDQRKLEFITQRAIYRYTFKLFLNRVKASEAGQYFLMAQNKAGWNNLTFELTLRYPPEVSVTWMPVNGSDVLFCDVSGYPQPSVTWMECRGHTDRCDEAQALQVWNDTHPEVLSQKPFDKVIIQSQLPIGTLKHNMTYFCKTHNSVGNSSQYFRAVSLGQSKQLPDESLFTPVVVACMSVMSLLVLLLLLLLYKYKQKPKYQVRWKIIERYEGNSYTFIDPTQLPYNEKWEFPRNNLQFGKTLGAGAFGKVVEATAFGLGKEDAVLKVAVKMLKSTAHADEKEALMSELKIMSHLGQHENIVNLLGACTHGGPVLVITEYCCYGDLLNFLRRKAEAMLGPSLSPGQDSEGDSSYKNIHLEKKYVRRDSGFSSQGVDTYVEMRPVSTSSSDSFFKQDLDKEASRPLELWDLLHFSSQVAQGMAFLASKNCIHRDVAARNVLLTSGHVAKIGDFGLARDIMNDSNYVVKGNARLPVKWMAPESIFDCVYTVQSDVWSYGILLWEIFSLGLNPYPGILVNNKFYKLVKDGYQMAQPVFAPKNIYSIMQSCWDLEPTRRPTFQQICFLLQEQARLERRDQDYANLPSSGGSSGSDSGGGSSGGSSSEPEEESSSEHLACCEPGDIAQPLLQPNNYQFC

[2] = biological target: T2, Macrophage colony-stimulating factor 1 receptor (Mus musculus, UniProt P09581); experiment: Binding affinity to CSF-1R in C57BL/6 mouse BMDM cells assessed as dissociation constant by SPR assay
T2 sequence (P09581 whole entry): T1 sequence (whole entry)

[3] = tested on: BMDM; experiment: (§1) Induction of conversion of M2-macrophages to the M1 phenotype in CM of MC38 cells treated C57BL/6 mouse BMDM cells assessed as down regulation of Retnla mRNA expression at 30 to 100 nM preincubated with culture medium of MC38 cells for 24 hrs followed by compound addition and measured after 24 hrs by qPCR analysis; format: functional, cell-based; conditions: dose 30-100 nM
[4] = tested on: BMDM; experiment: as §1, with “Vegf” for “Retnla”; format: functional, cell-based; conditions: dose 30-100 nM
[5] = tested on: BMDM; experiment: as §1, with “upregulation” for “down regulation”, “Il12” for “Retnla”; format: functional, cell-based; conditions: dose 30-100 nM
[6] = tested on: BMDM; experiment: as §1, with “upregulation” for “down regulation”, “Tnf” for “Retnla”; format: functional, cell-based; conditions: dose 30-100 nM
[7] = tested on: BMDM; experiment: as §1, with “upregulation” for “down regulation”, “Nos2” for “Retnla”; format: functional, cell-based; conditions: dose 30-100 nM
[8] = tested on: THP-1; experiment: Induction of conversion of M2-macrophages to the M1 phenotype in CM of HCT116 cells treated […]-differentiated human THP-1 cells assessed as down regulation of Il10 mRNA expression at 30 to 100 nM incubated for 24 hrs by qPCR analysis; format: functional, cell-based; conditions: dose 30-100 nM
[9] = tested on: THP-1; experiment: Induction of conversion of M2-macrophages to the M1 phenotype in CM of HCT116 cells treated […]-differentiated human THP-1 cells assessed as down regulation of Arg1 mRNA expression at 30 to 100 nM incubated for 24 hrs by qPCR analysis; format: functional, cell-based; conditions: dose 30-100 nM
[10] = tested on: THP-1; experiment: Induction of conversion of M2-macrophages to the M1 phenotype in CM of HCT116 cells treated […]-differentiated human THP-1 cells assessed as upregulation of Il12 mRNA expression at 30 to 100 nM incubated for 24 hrs by qPCR analysis; format: functional, cell-based; conditions: dose 30-100 nM
[11] = tested on: THP-1; experiment: Induction of conversion of M2-macrophages to the M1 phenotype in CM of HCT116 cells treated […]-differentiated human THP-1 cells assessed as upregulation of Nos2 mRNA expression at 30 to 100 nM incubated for 24 hrs by qPCR analysis; format: functional, cell-based; conditions: dose 30-100 nM
[12] = tested on: HCT-116; experiment: Antiproliferative activity against human HCT116 cells cultured with culture medium of M2-macrophages assessed as reduction in cell viability at 10 to 100 nM incubated for 24 hrs by CCK-8 assay; format: functional, cell-based; conditions: dose 10-100 nM
[13] = tested on: Mus musculus; experiment: Toxicity in C57BL/6 mouse allografted with mouse MC38 cells assessed as liver damage at 5 to 20 mg/kg, po administered every day for 2 weeks by histopathological analysis; format: organism-based, MC-38; conditions: in vivo, 336 h, dose 5-20 mg/kg
[14] = tested on: Mus musculus; experiment: Toxicity in C57BL/6 mouse allografted with mouse MC38 cells assessed as kidney damage at 5 to 20 mg/kg, po administered every day for 2 weeks by histopathological analysis; format: organism-based, MC-38; conditions: in vivo, 336 h, dose 5-20 mg/kg
[15] = tested on: MC-38; experiment: Antitumor activity against mouse MC38 cells allografted in C57BL6 mouse assessed as decrease in Il10 mRNA expression at 10 to 20 mg/kg, po administered daily for 2 weeks by qPCR analysis; format: functional, organism-based; conditions: dose 10-20 mg/kg
[16] = tested on: MC-38; experiment: Antitumor activity against mouse MC38 cells allografted in C57BL6 mouse assessed as decrease in Arg1 mRNA expression at 10 to 20 mg/kg, po administered daily for 2 weeks by qPCR analysis; format: functional, organism-based; conditions: dose 10-20 mg/kg
[17] = tested on: MC-38; experiment: Antitumor activity against mouse MC38 cells allografted in C57BL6 mouse assessed as decrease in Retnla mRNA expression at 10 to 20 mg/kg, po administered daily for 2 weeks by qPCR analysis; format: functional, organism-based; conditions: dose 10-20 mg/kg
[18] = tested on: MC-38; experiment: Antitumor activity against mouse MC38 cells allografted in C57BL6 mouse assessed as decrease in Vegf mRNA expression at 10 to 20 mg/kg, po administered daily for 2 weeks by qPCR analysis; format: functional, organism-based; conditions: dose 10-20 mg/kg
[19] = tested on: MC-38; experiment: Antitumor activity against mouse MC38 cells allografted in C57BL6 mouse assessed as increase in Il12 mRNA expression at 10 to 20 mg/kg, po administered daily for 2 weeks by qPCR analysis; format: functional, organism-based; conditions: dose 10-20 mg/kg
[20] = tested on: MC-38; experiment: Antitumor activity against mouse MC38 cells allografted in C57BL6 mouse assessed as increase in Il6 mRNA expression at 10 to 20 mg/kg, po administered daily for 2 weeks by qPCR analysis; format: functional, organism-based; conditions: dose 10-20 mg/kg

inhibition [1]: Active
Kd [2]: 3.4 nM
Structure (SMILES): Cc1[nH]c(/C=C2\C(=O)Nc3cc(NC(=O)Nc4cc(C(C)(C)C)on4)ccc32)c(C)c1NC(=O)CN1CCN(C)CC1
Activity [3]: Active
Activity [4]: Active
Activity [5]: Active
Activity [6]: Active
Activity [7]: Active
Activity [8]: Active
Activity [9]: Active
Activity [10]: Active
Activity [11]: Active
Activity [12]: Active
Activity [13]: Non-Toxic
Activity [14]: Non-Toxic
Activity [15]: Active
Activity [16]: Active
Activity [17]: Active
Activity [18]: Active
Activity [19]: Active
Activity [20]: Active
